In patent publication US10722466B2, “Liposomal formulation for use in the treatment of cancer” (LES LABORATOIRES SERVIER, priority 2016, dated 2020):

Tests used:
[1] = Aqueous solubility of Compound A; type: physicochemical; conditions: all pHs, including physiologically relevant pHs
[2] = In vitro release assay: release of Compound A from SUV to acceptor multilamellar vesicles (MLVs); type: physicochemical
Description: The aim of this experiment was to investigate the release rate of Compound A from small unilamellar vesicles (SUV; used here as a drug carrier system, see Example 3A) to large multilamellar vesicles (MLVs) consisting of egg phospholipids, and used as a lipophilic acceptor for drug released (see Shabbits J. A., Chiu G. N. and Mayer L. D. “Development of an in vitro drug release assay that accurately predicts in vivo drug retention for liposome-based delivery systems” Journal of Controlled Release 2002, 84(3), 161-170).
Multilamellar vesicles were prepared by using the Film-Hydration method. In short, egg phospholipids (Lipoid E 80 S) were weighed out and completely dissolved in organic solvent (EtOH/DCM at 4:1 v/v) to assure a homogenous mixture of all components.
Next, the organic solvent was removed using rotary evaporation (first step: 200 mbar, 50° C., 2 hours; second step: 30 mbar, 50° C., 45 minutes) to yield a homogenous lipid film. To assure complete removal of the organic solvent, the flask was flushed with nitrogen. Next, the film was rehydrated using phosphate buffered saline (PBS, pH 7.4) yielding MLVs and upon complete rehydration the MLVs were exposed to sonication for 15 minutes.
To have the MLVs resuspended in the same buffer system as the SUVs, the suspension was centrifuged for 10 minutes at 14,000 g, the supernatant (PBS) was removed, and replaced by sucrose histidine buffer. Lastly, the mixture was vortexed thoroughly to assure complete redispersion of the MLVs in the new medium before starting the release experiment.
SUVs (donor) were mixed with MLVs (acceptor) in a 25 ml Erlenmeyer flask with a stopper under stirring (500 rpm) at various ratios (1:40, 1:100, 1:200, 1:500; SUV:MLV v/v). 1 ml samples were taken at different time points and immediately centrifuged (14′000 rpm, 10 minutes) to separate the MLVs from SUVs for further processing. FIG. 3 herein is a schematic depicting the principle of the MLV-based release assay.
Next, the MLV portion was removed via suction and 50 μl of the SUV portion were mixed with 450 μl of ACN:H2O for HPLC sample preparation. The sample was then centrifuged (14′000 rpm, 10 minutes), the supernatant was filtered using a 0.22 μm filter and injected into the HPLC for analysis.
A high performance liquid chromatography (HPLC) system with UV detection including the following equipment settings and solvent systems were employed:
Compound A release was measured using MLVs as the acceptor compartment. Here, Compound A-loaded SUVs (7.5 mg/ml) were added to these MLVs at different ratios (v/v).
Note: For all MLV release experiments, the maximum concentration (maxC=100%) was obtained by diluting the 7.5 mg/ml loaded SUVs 1 to 40, 1 to 100, 1 to 200, or 1 to 500 (v/v) in Sucrose Histidine buffer instead of MLVs.

For `COc1ccccc1-c1nccc(COc2ccccc2CC(Oc2ncnc3sc(-c4ccc(F)cc4)c(-c4ccc(OCCN5CCN(C)CC5)c(Cl)c4C)c23)C(=O)O)n1` [Compound A, (2R)-2-{[(5Sa)-5-{3-chloro-2-methyl-4-[2-(4-methylpiperazin-1-yl)ethoxy]phenyl}-6-(4-fluorophenyl)thieno[2,3-d]pyrimidin-4-yl]oxy}-3-(2-{[2-(2-methoxyphenyl)pyrimidin-4-yl]methoxy}phenyl)propanoic acid], the Aqueous solubility [1] was “limited aqueous solubility across all pHs”, the “Initial amount of Compound A still detectable in the SUV portion” value ([2]; SUV:MLV 1 to 40 (v/v), after 2 minutes, 7.5 mg/ml loaded SUVs) was “about 44%” and the “Compound A released or transferred to the acceptor MLV” value ([2]; SUV:MLV 1 to 40 (v/v), t=2 minutes) was about 60%. For the same compound, the “Compound A released to the acceptor MLV” value ([2]; SUV:MLV 1 to 100 (v/v), t=2 minutes) was about 70%, the “Compound A released to the acceptor MLV” value ([2]; SUV:MLV 1 to 200 (v/v), t=2 minutes) was about 80% and the “Compound A released to the acceptor MLV” value ([2]; SUV:MLV 1 to 500 (v/v), t=2 minutes) was about 90%. The “Drug substance released (maximum over the ratios tested)” value ([2]; after only 2 minutes) was “up to 90%”.
